# Data: patent US20250144127A1, “LONG-CHAIN COMPOUND AND USE THEREOF” (Burgeon Therapeutics Co., Ltd., priority 2021, published 2025)
# Assays:
# [1] = target: T1, Human-derived ACLY protein (Homo sapiens, UniProt P53396); assay: ACLY citrate cleavage enzyme inhibition, ADP-Glo assay; assay type: biochemical; conditions: 25 nM enzyme, 30 min, 37° C., read-out: IC50 for inhibition of ACLY enzyme activity (mean ± SD)
# T1 construct: purchased Beijing Yiqiao Shenzhou Technology Co., Ltd 11769-H07B
# T1 sequence (P53396 1-1101): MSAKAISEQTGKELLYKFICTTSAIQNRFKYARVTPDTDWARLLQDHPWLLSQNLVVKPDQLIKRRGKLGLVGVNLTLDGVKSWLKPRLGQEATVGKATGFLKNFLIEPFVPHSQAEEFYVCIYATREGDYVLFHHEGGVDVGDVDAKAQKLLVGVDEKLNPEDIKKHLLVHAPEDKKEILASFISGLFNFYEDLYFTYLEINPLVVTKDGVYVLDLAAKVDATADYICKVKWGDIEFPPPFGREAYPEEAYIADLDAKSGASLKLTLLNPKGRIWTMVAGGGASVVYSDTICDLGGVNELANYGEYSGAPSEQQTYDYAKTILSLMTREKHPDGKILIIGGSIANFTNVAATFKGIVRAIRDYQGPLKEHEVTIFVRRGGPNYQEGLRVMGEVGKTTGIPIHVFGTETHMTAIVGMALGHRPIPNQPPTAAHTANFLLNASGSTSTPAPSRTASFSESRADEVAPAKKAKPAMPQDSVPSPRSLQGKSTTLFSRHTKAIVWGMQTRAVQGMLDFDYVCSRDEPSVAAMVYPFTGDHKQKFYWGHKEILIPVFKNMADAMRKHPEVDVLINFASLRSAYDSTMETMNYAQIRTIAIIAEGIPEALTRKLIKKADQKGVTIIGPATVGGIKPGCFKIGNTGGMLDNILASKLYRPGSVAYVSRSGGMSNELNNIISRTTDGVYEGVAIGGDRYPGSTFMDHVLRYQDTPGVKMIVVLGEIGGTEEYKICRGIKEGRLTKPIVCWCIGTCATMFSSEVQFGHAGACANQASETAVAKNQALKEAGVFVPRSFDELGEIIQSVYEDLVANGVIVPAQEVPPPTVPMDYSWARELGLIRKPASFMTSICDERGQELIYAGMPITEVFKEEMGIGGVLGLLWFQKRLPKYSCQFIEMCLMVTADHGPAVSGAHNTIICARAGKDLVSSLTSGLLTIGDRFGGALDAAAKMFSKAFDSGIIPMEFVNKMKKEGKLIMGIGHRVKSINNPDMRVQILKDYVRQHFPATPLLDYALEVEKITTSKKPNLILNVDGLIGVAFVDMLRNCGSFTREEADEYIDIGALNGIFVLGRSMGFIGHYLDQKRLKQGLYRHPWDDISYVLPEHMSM
# Excerpt: The ACLY-catalyzed citric acid cleavage process requires the consumption of one molecule of ATP to activate citric acid. Based on this reaction principle, the inventors utilized an ADP-Glo assay kit to detect the amount of ATP converted to ADP in response to the catalytic activity of ACLY. After the establishment of the activity measurement system and optimization of the reaction conditions, the inventors evaluated the ACLY inhibitory activity of the obtained novel ACLY small molecule inhibitors.
# Activity test protocol: Human-derived ACLY protein was purchased from Beijing Yiqiao Shenzhou Technology Co., Ltd (Item No. 11769-H07B), and ADP-Glo assay kit was purchased from Promega (Item No. V9102). The total volume of the reaction was 5 μL, which consisted of a mixture of three parts: 1 μL of 2% DMSO, 2 μL of the substrate mixture, and 2 μL of the enzyme (final concentration of 25 nM). Then 1 μL of different concentrations of compounds were added for incubation. Reaction conditions: 30 min, 37° C. Then 2.5 μL of ADP Reagent from ADP-Glo Kit was used, mixed well and reacted for 2 h. 5 μL of ADP Detection was added, centrifuged and mixed well. Then the full wavelength value was read from Envision multifunctional plate reader.
# Results: Firstly, the cumulative amount of fluorescence intensity of the enzyme in 30 min reaction time (RFU/min) was calculated to represent the initial velocity of the enzyme, and then the ratio of the enzyme's velocity with the addition of compounds (vsample) to the enzyme's velocity without the addition of compounds (vDMSO) was calculated to be the percentage of activity for each concentration group of the samples (Activity rate %), with the formula: % Activity=(V(sample)/(v(DMSO))×100%. The logarithmic value of the concentration was plotted against the activity percentage, and then a non-linear regression was used to calculate the fitted curve. The software GraphPad Prism 8.0 (formula log (inhibitor) vs. response—Variable slope) was used to fit the curve and calculate the IC50 value, and the results are shown in the table below.
# ob/ob mice = assay: NASH induced by high-fat, high-sugar, high-cholesterol diet in ob/ob mice; assay type: in vivo, mouse; conditions: 30 mg/kg, 1 time/day, 10 weeks
# Description: Dosing regimen: 16 ob/ob mice, males, 7-8 weeks, were equally divided into 2 groups (n=8) and fed with high-fat, high-sugar, high-cholesterol diet (Research diet, item number D09100310) for 8 weeks for modeling, and a group of wild-type mice from the same litter was set up as a blank control group. Long-term drug administration was started after 8 weeks of modeling and the groups were model control group, compound A3 30 mg/kg group, and blank control group. The compounds in each group were prepared in saline (0.9% NaCl) and administered at a frequency of 1 time/day for 10 weeks.
# Indicator test: The body weight and feeding changes of ob/ob mice and blank control mice were closely monitored during the administration period. After 10 weeks of administration, the livers of each group were taken and tested for NASH indicators (HE staining, Sirius red staining, immunohistochemistry for inflammatory signals, etc.).
compound,measurement,setting,value
CC(C)(CCCC/C=C/CCCCCC(C)(C)C(=O)O)C(=O)O [Compound A3],IC50,[1],85.4 ± 9.8 µM
same,liver whitening and granulomatous sensation due to excessive lipid accumulation,ob/ob mice,significantly reversed
same,degree of hepatic collagen deposition (Sirius red staining),ob/ob mice; vs model control,significantly reduced
same,hepatic inflammatory cell infiltration (macrophage CD68 staining),ob/ob mice; vs model control,significantly reduced
same,liver steatosis and ballooning (H & E staining),ob/ob mice; vs model control,significantly reduced
